Experimental data: PubChem BioAssay AID330 (DTP/NCI, 2004)
Several values for one entry are separate records, joined by “and”; a condition that tells them apart may be missing. Equal entries are not always repeated. Inconclusive results and toxic doses are left out.

System: P388 leukemia ip, CD2F1 mice, survival T/C
Assay: NCI In Vivo Anticancer Drug Screen. Data for tumor model P388 Leukemia (intraperitoneal) in CD2F1 (CDF1) mice
Conditions: endpoint: median survival time, higher = longer survival
Procedure, shortened: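 Mice carrying the transplanted tumor received test compound or vehicle. Survival was recorded in each group, and the value is the treated-group measurement divided by that of the vehicle-treated control group.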

[1] = dose: 50.0 mg/kg/injection, schedule: Q01DX005 (ip), vehicle: saline with Tween-80
[2] = dose: 100.0 mg/kg/injection, schedule: Q01DX005 (ip), vehicle: saline with Tween-80
[3] = dose: 200.0 mg/kg/injection, schedule: Q01DX005 (ip), vehicle: saline with Tween-80
[4] = dose: 50.0 mg/kg/injection, schedule: Q01DX009 (ip), vehicle: saline
[5] = dose: 100.0 mg/kg/injection, schedule: Q01DX009 (ip), vehicle: saline with Tween-80
[6] = dose: 200.0 mg/kg/injection, schedule: Q01DX009 (ip), vehicle: saline with Tween-80
[7] = dose: 50.0 mg/kg/injection, schedule: Q01DX005 (ip), vehicle: Klucel (hydroxypropylcellulose) (HPC)
[8] = dose: 100.0 mg/kg/injection, schedule: Q01DX005 (ip), vehicle: Klucel (hydroxypropylcellulose) (HPC)
[9] = dose: 200.0 mg/kg/injection, schedule: Q01DX005 (ip), vehicle: Klucel (hydroxypropylcellulose) (HPC)
[10] = dose: 100.0 mg/kg/injection, schedule: Q01DX009 (ip), vehicle: saline
[11] = dose: 200.0 mg/kg/injection, schedule: Q01DX009 (ip), vehicle: saline
[12] = dose: 50.0 mg/kg/injection, schedule: Q01DX009 (ip), vehicle: Klucel (hydroxypropylcellulose) (HPC)
[13] = dose: 100.0 mg/kg/injection, schedule: Q01DX009 (ip), vehicle: Klucel (hydroxypropylcellulose) (HPC)
[14] = dose: 25.0 mg/kg/injection, schedule: Q01DX005 (ip), vehicle: Klucel (hydroxypropylcellulose) (HPC)
[15] = dose: 200.0 mg/kg/injection, schedule: Q01DX009 (ip), vehicle: Klucel (hydroxypropylcellulose) (HPC)

## COc1ccc(S(=O)(=O)N/N=C/c2cccc([N+](=O)[O-])c2O)cc1
[1]
  T/C: 100 % of control
[2]
  T/C: 100 % of control
[3]
  T/C: 95 % of control

## CC1OC1C(=O)Sc1ccccc1 (centres undefined)
dose: 12.5 mg/kg/injection, schedule: Q01DX009 (ip), vehicle: saline
  T/C: 105 % of control
dose: 25.0 mg/kg/injection, schedule: Q01DX009 (ip), vehicle: saline
  T/C: 110 % of control
[4]
  T/C: 106 % of control

## C(=C\c1ccc2ccccc2n1)/c1ccc2c(c1)OCO2
[5]
  T/C: 105 % of control
[6]
  T/C: 95 % of control
dose: 400.0 mg/kg/injection, schedule: Q01DX009 (ip), vehicle: saline with Tween-80
  T/C: 110 % of control

## CC1(C)CC(C)(OC(=O)c2ccc([N+](=O)[O-])cc2)[N+]([O-])=N1 (centres undefined)
dose: 12.5 mg/kg/injection, schedule: Q01DX009 (ip), vehicle: other
  T/C: 96 % of control
dose: 25.0 mg/kg/injection, schedule: Q01DX009 (ip), vehicle: other
  T/C: 100 % of control
dose: 50.0 mg/kg/injection, schedule: Q01DX009 (ip), vehicle: other
  T/C: 95 % of control
dose: 100.0 mg/kg/injection, schedule: Q01DX009 (ip), vehicle: other
  T/C: 94 % of control
dose: 200.0 mg/kg/injection, schedule: Q01DX009 (ip), vehicle: other
  T/C: 88 % of control

## CC1=C(c2ccccc2)OC(c2ccccc2)=C[P+]1(c1ccccc1)c1ccccc1
dose: 1.56 mg/kg/injection, schedule: Q01DX005 (ip), vehicle: saline
  T/C: 105 % of control
dose: 3.12 mg/kg/injection, schedule: Q01DX005 (ip), vehicle: saline
  T/C: 110 % of control

## Oc1ccccc1C=Nc1ccc2c(ccc3c4ccccc4ccc23)c1
[7]
  T/C: 111 % of control
[8]
  T/C: 102 % of control
[9]
  T/C: 116 % of control

## Cc1ccc(S(=O)(=O)N=Nc2c(O)[nH]c3c(Cl)cc(Cl)cc23)cc1
[1]
  T/C: 103 % of control
[2]
  T/C: 100 % of control
[3]
  T/C: 95 % of control

## O=[N+]([O-])c1ccc(N/N=C\C2OC3O[C@@H](C(Cl)(Cl)Cl)OC3C2O)c([N+](=O)[O-])c1 (some centres undefined)
dose: 200.0 mg/kg/injection, schedule: Q04DX002 (ip), vehicle: saline with Tween-80
  T/C: 87 % of control

## Nc1oc([N+](=O)[O-])cc1[N+](=O)[O-]
[10]
  T/C: 106 % of control
[11]
  T/C: 118 % of control

## CCCCCCCCCCCCCCCC(=O)NCC(=O)NC1C(CO)OC(Nc2ncnc3nc[nH]c23)C(O)C1O (centres undefined)
dose: 0.13 mg/kg/injection, schedule: Q01DX009 (ip), vehicle: water
  T/C: 110 % of control
dose: 0.25 mg/kg/injection, schedule: Q01DX009 (ip), vehicle: water
  T/C: 107 % of control
dose: 1.0 mg/kg/injection, schedule: Q01DX009 (ip), vehicle: water
  T/C: 96 % of control
dose: 2.0 mg/kg/injection, schedule: Q01DX009 (ip), vehicle: water
  T/C: 98 % of control

## CCCCCCCCCCCCCCCCCCN(C)C
dose: 25.0 mg/kg/injection, schedule: Q01DX009 (ip), vehicle: Klucel (hydroxypropylcellulose) (HPC)
  T/C: 100 % of control
[12]
  T/C: 101 % of control

## COc1cc(O)c(/C=N\O)c(OC)c1
dose: 60.0 mg/kg/injection, schedule: Q01DX005 (ip), vehicle: saline with Tween-80
  T/C: 96 % of control
dose: 120.0 mg/kg/injection, schedule: Q01DX005 (ip), vehicle: saline with Tween-80
  T/C: 98 % of control
dose: 240.0 mg/kg/injection, schedule: Q01DX005 (ip), vehicle: saline with Tween-80
  T/C: 98 % of control

## Cc1cc(O)c(C2(C)CCC3CC32C)cc1Br (centres undefined)
dose: 25.0 mg/kg/injection, schedule: Q01DX009 (ip), vehicle: saline with Tween-80
  T/C: 97 % of control
dose: 50.0 mg/kg/injection, schedule: Q01DX009 (ip), vehicle: saline with Tween-80
  T/C: 105 % of control
[5]
  T/C: 107 % of control
[6]
  T/C: 114 % of control

## CCCCCCCCCCCCOC(=O)c1ccc(O)cc1
[12]
  T/C: 98 % of control
[13]
  T/C: 94 % of control

## CCc1nc(N)nc(N)c1-c1ccc(NCCCN)c(N)c1
dose: 12.5 mg/kg/injection, schedule: Q01DX005 (ip), vehicle: Klucel (hydroxypropylcellulose) (HPC)
  T/C: 101 % of control
[14]
  T/C: 106 % of control
[7]
  T/C: 110 % of control and 97 % of control

## NC(N)=NNC(O)(C(=O)O)C(=O)O
[7]
  T/C: 100 % of control
[8]
  T/C: 96 % of control
[9]
  T/C: 96 % of control

## COc1ccc2c(c1)C(c1ccccc1)SC(c1ccccc1)=C2 (centres undefined)
[12]
  T/C: 107 % of control
[13]
  T/C: 100 % of control
[15]
  T/C: 99 % of control

## Cc1cc(C)c(C2=NO[C@H]3c4ccccc4OC[C@@H]23)c(C)c1
[7]
  T/C: 105 % of control
[8]
  T/C: 96 % of control
[9]
  T/C: 89 % of control

## O=C1Nc2ccccc2/C1=N/N1C(=O)c2ccccc2C1=O
[7]
  T/C: 91 % of control
[8]
  T/C: 92 % of control
[9]
  T/C: 97 % of control

## O=C(O)/C(=C/c1ccc(/C=C(/C(=O)O)c2ccccc2)o1)c1ccccc1
dose: 100.0 mg/kg/injection, schedule: Q01DX001 (ip), vehicle: saline with Tween-80
  T/C: 101 % of control
dose: 200.0 mg/kg/injection, schedule: Q01DX001 (ip), vehicle: saline with Tween-80
  T/C: 97 % of control
dose: 400.0 mg/kg/injection, schedule: Q01DX001 (ip), vehicle: saline with Tween-80
  T/C: 101 % of control

## CCCOc1ccc(-c2nc(-c3ccc(N)cc3)cs2)cc1
[12]
  T/C: 111 % of control
[13]
  T/C: 109 % of control
[15]
  T/C: 109 % of control

## C=C(C)[C@]12CC(C)C34OC(/C=C\C=C\CCCCCCCCC)(O[C@@H]1[C@@H]3[C@@H]1O[C@]1(CO)[C@@H](O)[C@]1(O)C(=O)C(C)=C[C@@H]41)O2 (some centres undefined)
dose: 0.75 mg/kg/injection, schedule: Q01DX009 (ip), vehicle: alcohol
  T/C: 160 % of control
dose: 1.5 mg/kg/injection, schedule: Q01DX009 (ip), vehicle: alcohol
  T/C: 160 % of control and 163 % of control

## CCCCCCCCCCCOCC(=O)O
[12]
  T/C: 98 % of control
[13]
  T/C: 92 % of control

## Cc1noc(-c2ccc([N+](=O)[O-])o2)n1
dose: 130.0 mg/kg/injection, schedule: Q01DX009 (ip), vehicle: Klucel (hydroxypropylcellulose) (HPC)
  T/C: 100 % of control
[15]
  T/C: 104 % of control

## O=P1(Oc2ccc(N=C=S)cc2)OCCCO1
dose: 60.0 mg/kg/injection, schedule: Q01DX005 (ip), vehicle: Klucel (hydroxypropylcellulose) (HPC)
  T/C: 102 % of control
dose: 120.0 mg/kg/injection, schedule: Q01DX005 (ip), vehicle: Klucel (hydroxypropylcellulose) (HPC)
  T/C: 103 % of control
dose: 240.0 mg/kg/injection, schedule: Q01DX005 (ip), vehicle: Klucel (hydroxypropylcellulose) (HPC)
  T/C: 104 % of control

## Nc1nc(N)c2nc(NCc3ccc(C(=O)NC(CCC(=O)O)C(=O)O)cc3)cnc2n1 (centres undefined)
[4]
  T/C: 100 % of control
[10]
  T/C: 109 % of control
[11]
  T/C: 113 % of control
dose: 400.0 mg/kg/injection, schedule: Q01DX009 (ip), vehicle: saline
  T/C: 95 % of control

## COc1ccc(C=NC(C)(C)CO)cc1OC
[14]
  T/C: 100 % of control
[7]
  T/C: 109 % of control
[8]
  T/C: 101 % of control
[9]
  T/C: 100 % of control

## CCOC(=O)C(=O)Nc1oc(C)c(C)c1C#N
dose: 12.5 mg/kg/injection, schedule: Q01DX009 (ip), vehicle: saline + alcohol
  T/C: 100 % of control and 107 % of control and 118 % of control
dose: 25.0 mg/kg/injection, schedule: Q01DX009 (ip), vehicle: saline + alcohol
  T/C: 109 % of control and 116 % of control and 124 % of control
dose: 25.0 mg/kg/injection, schedule: Q04DX003 (ip), vehicle: saline + alcohol
  T/C: 115 % of control
dose: 50.0 mg/kg/injection, schedule: Q04DX003 (ip), vehicle: saline + alcohol
  T/C: 106 % of control
dose: 100.0 mg/kg/injection, schedule: Q01DX001 (ip), vehicle: saline + alcohol
  T/C: 95 % of control
dose: 100.0 mg/kg/injection, schedule: Q01DX009 (ip), vehicle: saline + alcohol
  T/C: 110 % of control and 93 % of control
dose: 100.0 mg/kg/injection, schedule: Q04DX003 (ip), vehicle: saline + alcohol
  T/C: 112 % of control
dose: 200.0 mg/kg/injection, schedule: Q01DX001 (ip), vehicle: saline + alcohol
  T/C: 96 % of control

## Cn1c2nc(-[n+]3ccc(N4CCOCC4)cc3)nc-2c([O-])n(C)c1=O
dose: 100.0 mg/kg/injection, schedule: Q04DX003 (ip), vehicle: saline
  T/C: 100 % of control
dose: 200.0 mg/kg/injection, schedule: Q04DX003 (ip), vehicle: saline
  T/C: 101 % of control
dose: 400.0 mg/kg/injection, schedule: Q04DX003 (ip), vehicle: saline
  T/C: 100 % of control
